Values joined by “and” are separate entries in the source; they are usually repeats but may differ in a detail not shown here. Equal entries are not always repeated.
Tests used:
[1] = target: T1, Amine oxidase [flavin-containing] A (Homo sapiens, UniProt P21397); test: Inhibition of MAO-A (unknown origin)
T1 sequence (P21397 whole entry): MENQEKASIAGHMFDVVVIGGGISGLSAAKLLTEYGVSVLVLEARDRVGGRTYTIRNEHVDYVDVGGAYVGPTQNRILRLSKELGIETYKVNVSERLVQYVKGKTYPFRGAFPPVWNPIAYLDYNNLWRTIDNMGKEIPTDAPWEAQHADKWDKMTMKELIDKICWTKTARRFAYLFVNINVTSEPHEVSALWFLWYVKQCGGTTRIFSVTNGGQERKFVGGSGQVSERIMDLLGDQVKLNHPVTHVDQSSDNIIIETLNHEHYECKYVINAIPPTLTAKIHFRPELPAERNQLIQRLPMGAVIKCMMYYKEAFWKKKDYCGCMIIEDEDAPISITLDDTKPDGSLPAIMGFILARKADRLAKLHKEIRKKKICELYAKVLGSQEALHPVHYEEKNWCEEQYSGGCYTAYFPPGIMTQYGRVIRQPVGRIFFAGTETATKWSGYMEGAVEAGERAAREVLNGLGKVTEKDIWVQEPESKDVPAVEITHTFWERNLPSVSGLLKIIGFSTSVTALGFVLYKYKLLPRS

[2] = target: T2, Amine oxidase [flavin-containing] B (Homo sapiens, UniProt P27338); test: Inhibition of MAO-B (unknown origin)
T2 sequence (P27338 whole entry): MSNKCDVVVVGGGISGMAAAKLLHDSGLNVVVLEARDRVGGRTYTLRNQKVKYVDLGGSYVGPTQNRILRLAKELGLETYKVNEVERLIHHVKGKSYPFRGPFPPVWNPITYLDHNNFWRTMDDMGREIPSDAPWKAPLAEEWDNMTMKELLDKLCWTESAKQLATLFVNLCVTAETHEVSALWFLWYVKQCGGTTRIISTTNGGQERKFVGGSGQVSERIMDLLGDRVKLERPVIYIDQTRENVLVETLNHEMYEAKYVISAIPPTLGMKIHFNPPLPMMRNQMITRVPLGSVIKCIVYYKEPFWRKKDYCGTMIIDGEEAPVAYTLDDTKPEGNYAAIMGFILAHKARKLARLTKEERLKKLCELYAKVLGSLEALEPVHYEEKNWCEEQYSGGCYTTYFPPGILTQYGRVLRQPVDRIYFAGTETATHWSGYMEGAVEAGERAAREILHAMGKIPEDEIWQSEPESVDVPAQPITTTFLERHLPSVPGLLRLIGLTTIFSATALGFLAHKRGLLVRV

[3] = target: Amyloid-beta precursor protein (Homo sapiens) (UniProt P05067); test: Inhibition of amyloid beta (unknown origin) aggregation at 25 uM relative to control
Chain of Amyloid-beta precursor protein (Homo sapiens) (P05067 whole entry): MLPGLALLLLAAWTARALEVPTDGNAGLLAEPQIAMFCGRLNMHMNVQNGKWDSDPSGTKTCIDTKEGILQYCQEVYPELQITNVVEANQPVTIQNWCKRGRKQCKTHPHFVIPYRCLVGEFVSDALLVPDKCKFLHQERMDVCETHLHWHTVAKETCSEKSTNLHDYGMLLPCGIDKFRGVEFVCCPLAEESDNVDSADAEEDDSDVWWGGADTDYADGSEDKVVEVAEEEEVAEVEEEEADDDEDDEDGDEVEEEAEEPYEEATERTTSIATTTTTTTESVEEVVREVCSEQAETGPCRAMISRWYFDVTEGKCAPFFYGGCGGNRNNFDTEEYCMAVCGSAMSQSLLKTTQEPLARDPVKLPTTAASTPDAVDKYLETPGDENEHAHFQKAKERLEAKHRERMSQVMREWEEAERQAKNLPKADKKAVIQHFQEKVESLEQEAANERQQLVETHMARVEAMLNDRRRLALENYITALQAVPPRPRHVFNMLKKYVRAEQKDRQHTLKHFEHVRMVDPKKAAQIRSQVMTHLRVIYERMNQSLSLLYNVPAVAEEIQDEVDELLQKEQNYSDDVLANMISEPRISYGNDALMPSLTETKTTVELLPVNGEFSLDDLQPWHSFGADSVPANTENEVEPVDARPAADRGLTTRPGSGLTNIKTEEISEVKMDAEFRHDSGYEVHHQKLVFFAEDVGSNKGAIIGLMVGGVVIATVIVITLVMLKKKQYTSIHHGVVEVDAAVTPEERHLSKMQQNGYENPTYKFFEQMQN

[4] = target: 5-hydroxytryptamine receptor 2A (Homo sapiens, UniProt P28223); test: Displacement of [3H]-LSD from human 5-HT2A expressed in human HEK cells assessed as inhibition constant by FLIPR assay; assay type: cell-based
Chain of 5-hydroxytryptamine receptor 2A (P28223 whole entry): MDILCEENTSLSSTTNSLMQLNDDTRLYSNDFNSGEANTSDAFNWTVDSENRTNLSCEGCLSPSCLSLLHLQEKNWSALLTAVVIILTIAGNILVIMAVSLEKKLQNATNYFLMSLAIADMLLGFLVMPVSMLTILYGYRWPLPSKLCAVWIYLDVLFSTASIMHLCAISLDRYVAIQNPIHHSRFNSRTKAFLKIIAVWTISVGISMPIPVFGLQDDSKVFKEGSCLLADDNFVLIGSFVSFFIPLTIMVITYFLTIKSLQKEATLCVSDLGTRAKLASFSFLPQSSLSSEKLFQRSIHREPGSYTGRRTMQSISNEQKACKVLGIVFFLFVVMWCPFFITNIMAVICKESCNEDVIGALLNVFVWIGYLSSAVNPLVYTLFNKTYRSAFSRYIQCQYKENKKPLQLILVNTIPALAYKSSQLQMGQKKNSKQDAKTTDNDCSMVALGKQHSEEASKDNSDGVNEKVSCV

[5] = target: T3, 5-hydroxytryptamine receptor 3A (Homo sapiens, UniProt P46098); test: Binding affinity to 5-HT3R (unknown origin) assessed as inhibition constant
T3 sequence (P46098 whole entry): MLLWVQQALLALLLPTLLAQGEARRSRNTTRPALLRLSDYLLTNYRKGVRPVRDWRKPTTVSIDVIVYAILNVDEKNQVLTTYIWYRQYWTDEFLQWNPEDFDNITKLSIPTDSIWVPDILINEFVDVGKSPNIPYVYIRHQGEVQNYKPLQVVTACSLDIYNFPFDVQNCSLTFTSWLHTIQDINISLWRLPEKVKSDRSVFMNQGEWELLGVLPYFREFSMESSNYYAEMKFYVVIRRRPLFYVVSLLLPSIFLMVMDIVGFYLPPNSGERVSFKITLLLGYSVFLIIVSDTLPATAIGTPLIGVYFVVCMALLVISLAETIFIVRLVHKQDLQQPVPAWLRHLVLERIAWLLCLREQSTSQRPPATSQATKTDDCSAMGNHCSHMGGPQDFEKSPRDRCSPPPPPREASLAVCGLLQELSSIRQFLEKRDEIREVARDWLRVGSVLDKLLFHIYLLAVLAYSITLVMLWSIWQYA

[6] = target: 5-hydroxytryptamine receptor 5A (Homo sapiens, UniProt P47898); test: Binding affinity to 5-HT5AR (unknown origin) assessed as inhibition constant
Chain of 5-hydroxytryptamine receptor 5A (P47898 whole entry): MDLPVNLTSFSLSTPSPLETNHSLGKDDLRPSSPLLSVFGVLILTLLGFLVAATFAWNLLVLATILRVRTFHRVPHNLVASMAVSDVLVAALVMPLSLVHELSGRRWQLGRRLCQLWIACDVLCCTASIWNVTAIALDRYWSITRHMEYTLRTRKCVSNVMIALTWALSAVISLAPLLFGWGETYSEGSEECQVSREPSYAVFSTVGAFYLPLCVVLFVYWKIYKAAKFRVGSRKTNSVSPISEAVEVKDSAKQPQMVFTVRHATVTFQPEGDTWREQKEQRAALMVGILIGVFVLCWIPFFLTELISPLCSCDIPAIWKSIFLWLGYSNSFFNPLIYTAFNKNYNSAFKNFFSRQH

[7] = target: T1, Amine oxidase [flavin-containing] A; test: Binding affinity to MAO-A (unknown origin) assessed as inhibition constant
Acetylcholinesterase = Acetylcholinesterase (Homo sapiens, UniProt P22303); test: Inhibition of AChE (unknown origin)
Chain of Acetylcholinesterase (P22303 whole entry): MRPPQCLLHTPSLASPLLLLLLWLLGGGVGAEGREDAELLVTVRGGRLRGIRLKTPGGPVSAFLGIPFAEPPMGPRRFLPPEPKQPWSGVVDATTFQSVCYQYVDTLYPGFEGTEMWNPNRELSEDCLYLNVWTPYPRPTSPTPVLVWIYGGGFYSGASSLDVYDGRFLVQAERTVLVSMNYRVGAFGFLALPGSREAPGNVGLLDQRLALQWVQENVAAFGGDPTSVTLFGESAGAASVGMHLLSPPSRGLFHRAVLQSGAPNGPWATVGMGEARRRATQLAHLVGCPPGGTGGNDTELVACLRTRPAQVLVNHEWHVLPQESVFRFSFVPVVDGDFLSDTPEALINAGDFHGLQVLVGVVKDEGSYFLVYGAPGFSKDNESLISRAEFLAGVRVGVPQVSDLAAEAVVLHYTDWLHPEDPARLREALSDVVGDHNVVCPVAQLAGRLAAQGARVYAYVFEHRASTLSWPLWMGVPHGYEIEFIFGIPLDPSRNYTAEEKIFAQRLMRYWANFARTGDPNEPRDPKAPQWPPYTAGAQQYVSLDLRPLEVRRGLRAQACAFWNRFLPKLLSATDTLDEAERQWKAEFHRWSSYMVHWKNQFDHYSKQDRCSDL

Cholinesterase = Cholinesterase (Homo sapiens, UniProt P06276); test: Inhibition of BuChE (unknown origin)
Chain of Cholinesterase (P06276 whole entry): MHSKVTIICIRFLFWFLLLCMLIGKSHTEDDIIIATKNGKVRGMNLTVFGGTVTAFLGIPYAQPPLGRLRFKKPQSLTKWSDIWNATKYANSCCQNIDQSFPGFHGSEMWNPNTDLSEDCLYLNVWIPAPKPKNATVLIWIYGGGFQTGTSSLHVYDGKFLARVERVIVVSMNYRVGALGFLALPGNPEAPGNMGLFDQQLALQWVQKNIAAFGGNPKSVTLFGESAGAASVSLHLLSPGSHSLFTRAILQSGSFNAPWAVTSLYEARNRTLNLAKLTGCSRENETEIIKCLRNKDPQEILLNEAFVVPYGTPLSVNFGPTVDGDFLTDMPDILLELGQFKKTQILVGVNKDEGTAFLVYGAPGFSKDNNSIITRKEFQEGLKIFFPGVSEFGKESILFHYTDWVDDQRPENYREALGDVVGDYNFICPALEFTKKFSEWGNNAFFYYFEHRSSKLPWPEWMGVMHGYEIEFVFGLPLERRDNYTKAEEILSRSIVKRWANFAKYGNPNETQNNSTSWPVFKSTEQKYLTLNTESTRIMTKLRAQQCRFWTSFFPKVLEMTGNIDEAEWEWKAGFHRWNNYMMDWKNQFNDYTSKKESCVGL

[8] = Inhibition of NMDA receptor (unknown origin); design: species or system Homo sapiens
[9] = target: cGMP-specific 3',5'-cyclic phosphodiesterase (Homo sapiens, UniProt O76074); test: Inhibition of PDE5 (unknown origin)
Histone deacetylase = test: Inhibition of HDAC (unknown origin); assay type: protein assay, Homo sapiens
[10] = target: Glycogen synthase kinase-3 beta (Homo sapiens, UniProt P49841); test: Inhibition of GSK-3beta (unknown origin)
Chain of Glycogen synthase kinase-3 beta (P49841 whole entry): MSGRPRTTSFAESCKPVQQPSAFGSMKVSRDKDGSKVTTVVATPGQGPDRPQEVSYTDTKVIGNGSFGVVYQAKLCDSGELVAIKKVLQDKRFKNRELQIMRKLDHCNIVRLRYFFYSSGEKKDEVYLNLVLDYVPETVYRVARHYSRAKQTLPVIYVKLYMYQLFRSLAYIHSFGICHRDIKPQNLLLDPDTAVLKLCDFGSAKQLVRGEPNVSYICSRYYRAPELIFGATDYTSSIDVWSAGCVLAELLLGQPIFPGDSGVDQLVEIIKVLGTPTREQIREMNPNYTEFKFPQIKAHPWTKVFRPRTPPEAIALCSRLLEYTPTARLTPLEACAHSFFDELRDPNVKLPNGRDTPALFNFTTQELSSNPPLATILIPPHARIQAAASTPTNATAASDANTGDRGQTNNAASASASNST

Histone deacetylase 1 = Histone deacetylase 1 (Homo sapiens, UniProt Q13547); test: Inhibition of HDAC1 (unknown origin)
Chain of Histone deacetylase 1 (Q13547 whole entry): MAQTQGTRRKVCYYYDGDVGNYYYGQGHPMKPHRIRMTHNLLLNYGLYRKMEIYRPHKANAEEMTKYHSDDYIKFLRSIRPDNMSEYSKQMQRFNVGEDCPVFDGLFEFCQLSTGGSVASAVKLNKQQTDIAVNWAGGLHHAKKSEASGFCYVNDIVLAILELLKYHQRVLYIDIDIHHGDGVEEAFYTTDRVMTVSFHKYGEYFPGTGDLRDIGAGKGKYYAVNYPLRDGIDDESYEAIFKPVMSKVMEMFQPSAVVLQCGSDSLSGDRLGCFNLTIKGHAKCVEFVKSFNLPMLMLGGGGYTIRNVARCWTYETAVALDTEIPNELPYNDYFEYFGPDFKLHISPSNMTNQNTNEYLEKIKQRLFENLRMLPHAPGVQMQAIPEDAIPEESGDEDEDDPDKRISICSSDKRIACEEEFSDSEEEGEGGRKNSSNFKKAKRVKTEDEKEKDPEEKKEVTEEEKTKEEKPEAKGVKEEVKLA

[11] = target: T4, Protein deacetylase HDAC6 (Homo sapiens, UniProt Q9UBN7); test: Inhibition of HDAC6 (unknown origin)
T4 sequence (Q9UBN7 whole entry): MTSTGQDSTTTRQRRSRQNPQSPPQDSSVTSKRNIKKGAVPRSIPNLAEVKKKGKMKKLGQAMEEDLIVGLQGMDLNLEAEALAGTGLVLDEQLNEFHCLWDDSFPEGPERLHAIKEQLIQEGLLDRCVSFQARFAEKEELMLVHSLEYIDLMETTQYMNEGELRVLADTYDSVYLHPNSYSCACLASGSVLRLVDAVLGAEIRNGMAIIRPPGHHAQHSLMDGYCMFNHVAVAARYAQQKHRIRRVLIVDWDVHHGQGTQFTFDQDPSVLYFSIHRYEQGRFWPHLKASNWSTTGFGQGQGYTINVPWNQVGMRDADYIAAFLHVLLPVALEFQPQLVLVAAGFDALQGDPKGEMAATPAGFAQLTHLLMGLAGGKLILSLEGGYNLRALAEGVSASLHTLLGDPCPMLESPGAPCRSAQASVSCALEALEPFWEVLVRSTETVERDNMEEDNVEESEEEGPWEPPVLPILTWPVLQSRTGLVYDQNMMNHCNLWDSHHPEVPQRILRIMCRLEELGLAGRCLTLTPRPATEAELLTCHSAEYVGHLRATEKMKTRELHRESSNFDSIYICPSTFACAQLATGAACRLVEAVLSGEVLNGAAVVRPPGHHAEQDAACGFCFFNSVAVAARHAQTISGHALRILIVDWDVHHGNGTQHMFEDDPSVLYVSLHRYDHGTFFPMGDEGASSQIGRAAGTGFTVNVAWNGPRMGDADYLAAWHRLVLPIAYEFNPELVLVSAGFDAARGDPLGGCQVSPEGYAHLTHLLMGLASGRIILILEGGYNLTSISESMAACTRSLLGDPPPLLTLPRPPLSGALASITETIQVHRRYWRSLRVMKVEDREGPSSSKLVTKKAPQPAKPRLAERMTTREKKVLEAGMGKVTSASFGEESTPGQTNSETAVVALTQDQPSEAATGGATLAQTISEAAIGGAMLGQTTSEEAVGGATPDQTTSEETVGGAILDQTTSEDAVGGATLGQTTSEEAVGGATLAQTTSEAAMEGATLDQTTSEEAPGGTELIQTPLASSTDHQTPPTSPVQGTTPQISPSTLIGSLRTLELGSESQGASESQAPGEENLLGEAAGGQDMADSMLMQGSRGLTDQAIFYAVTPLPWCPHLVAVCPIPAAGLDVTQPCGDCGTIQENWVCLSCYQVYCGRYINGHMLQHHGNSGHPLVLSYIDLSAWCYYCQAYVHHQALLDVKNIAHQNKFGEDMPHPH

C/C=C(\C=O)[C@@H]1C[C@H]2c3[nH]c4ccccc4c3CCN2C=C1C(=O)OC [ISOVALLESIACHOTAMINE]
IC50 [1]: 870 nM | IC50 [2]: 130000 nM

CCCCc1ccc[n+](CC(=O)Nc2ccc3cc4c5[nH]c6ccccc6c5ccn4c(=O)c3c2)c1
inhibition [3]: 93%

COc1ccc2[nH]c3c(c2c1)CCN=C3C
Ki [4]: 4200 nM | Ki [5]: > 10000 nM | Ki [6]: > 10000 nM

COc1ccc2c3c(n(C)c2c1)C(C)=[N+](C)CC3
Ki [7]: 140 nM

COC(=O)C1=CN2CCc3c([nH]c4ccccc34)[C@@H]2C[C@H]1C1=CCOC1=O
IC50 [2]: 34000 nM

C[n+]1ccc2c3ccccc3n(CCc3ccccc3)c2c1
IC50 (Acetylcholinesterase): 0.5 nM | IC50 (Cholinesterase): 5000 nM | IC50 [8]: 5000 nM

O=C(CCCCCCN1CC(=O)N2[C@H](c3ccc(Cl)cc3)c3[nH]c4ccccc4c3C[C@@H]2C1=O)NO
IC50 [9]: 126 nM | IC50 (Histone deacetylase): 9.1 nM

CCCCn1c2cc(OCc3cn(Cc4ccccc4Cl)nn3)ccc2c2ccnc(C)c21
IC50 [1]: 430 nM | IC50 [2]: 360 nM

Oc1cccc2c1[nH]c1c(C3=C[C@@]4(O)CC/C=C\CCCCN5CCC3[C@]3(C[C@@H]6/C=C\CCCCN6[C@H]34)C5)nccc12 (stereo partly drawn)
IC50 [10]: 4800 nM

O=C(NO)c1cnc(N2CCC(CN3CC(=O)N4C(Cc5c([nH]c6ccccc56)C4c4ccc5c(c4)OCO5)C3=O)CC2)nc1 (stereo not drawn)
IC50 [9]: 310 nM | IC50 (Histone deacetylase 1): 80 nM | IC50 [11]: 80 nM

O=C(CCCCN1CC(=O)N2[C@H](c3ccc(Br)cc3)c3[nH]c4ccccc4c3C[C@@H]2C1=O)NO
IC50 [9]: 7 nM | IC50 (Histone deacetylase): 61 nM

COc1ccc2c3cc[n+](C)c(C)c3n(C)c2c1
Ki [7]: 69 nM and 15 nM

CCCc1ccc[n+](CC(=O)Nc2ccc3cc4c5[nH]c6ccccc6c5ccn4c(=O)c3c2)c1
inhibition [3]: 93%

c1ccc2c(c1)[nH]c1c[n+](CCCCCCCCCCCC[n+]3ccc4c(c3)[nH]c3ccccc34)ccc12
IC50 (Acetylcholinesterase): 86000 nM | IC50 (Cholinesterase): 1800 nM | IC50 [8]: 1800 nM

O=C(CCCCCN1CC(=O)N2[C@H](c3ccc(Br)cc3)c3[nH]c4ccccc4c3C[C@@H]2C1=O)NO
IC50 [9]: 7 nM | IC50 (Histone deacetylase): 61 nM

— ChEMBL document CHEMBL5233266, “β-Carboline as a Privileged Scaffold for Multitarget Strategies in Alzheimer's Disease Therapy” (J Med Chem, 2021)
